This assay relates to CellSensor T-REx NICD CSL-bla HeLa cell line (Notch response element driving beta-lactamase reporter). Put plainly: Notch assay (CSL-bla beta-lactamase reporter, DOX-inducible NICD). The format is cell-based. To be noted: Homo sapiens; 10 μM compound; HeLa/T-REx NICD CSL-bla cells, doxycycline-induced, 16-20 hours incubation; blue/green emission ratio. The protocol: We used the CellSensor T-REx™ NICD CSL-bla HeLa cell line, which was engineered by lentiviral transduction of HeLa cells with a Notch response element driving beta-lactamase reporter gene expression (CSL-bla) along with DOX (doxycycline)-inducible NICD (Notch intracellular domain) constructs. Addition of DOX to these cells allows for regulated NICD transcription factor expression and subsequent beta-lactamase expression.
Specifically, the following protocol was used.
• 1. Plate Cells: 32 μL/well of HeLa/T-REx™ NICD CSL-bla cells at 10^3 cells/well complete medium into 384-well plate. • 2. Prepare 10× compounds in assay medium. • 3. Add 4 μL compounds or 1% DMSO in assay medium to the cells. • 4. Add 4 μL 10× Doxycycline in Assay Medium to the treated wells, and 4 μL Assay Medium to the Untreated and cell free control wells. • 5. Incubate the assay plate in a humidified 37° C./5% CO2 incubator for 16-20 hours. • 6. Preparation of 6× LiveBLAzer™-FRET B/G Substrate (CCF4-AM) Mixture according to the manual and cell loading should be done in the absence of direct strong lighting. • 7. Remove assay plate from the humidified 37° C./5% CO2 incubator. Add 8 μl of 6× Substrate Mixture from […] to each well. Cover the plate to protect it from light and evaporation. Incubate at room temperature for 4 hours. • 8. Reading an Assay Plate using the following filter selections:
• 9. Data analysis: Use the assay plate layout to identify the location of the Cell-free wells. These control wells are used for background subtraction. Determine the average emission from the Cell-free wells at both 460 nm (Average Blue Background) and 530 nm (Average Green Background). Subtract the Average Blue Background (data collected at 460 nm) from all of the blue emission data. Subtract the Average Green background (data collected at 530 nm) from all of the green emission data. Calculate the Blue/Green Emission Ratio for each well, by dividing the background-subtracted blue emission values by the background-subtracted green emission values.

For orientation: inhibition means how much of the control response was suppressed. On to `CC(C)CCN1CC2N(C[C@@H](Cc3ccccc3)C1=O)C(=O)c1sccc1N2C(=O)NCc1ccc2c(c1)OCO2` (stereo partly drawn) [ID-34, (8R)—N-(benzo[d][1,3]dioxol-5-ylmethyl)-8-benzyl-6-isopentyl-7,11-dioxo-4a,5,6,7,8,9-hexahydrothieno[3′,2′:4,5]pyrimido[1,2-a][1,4]diazepine-4(11H)-carboxamide], for which the inhibition at 10 µM was found to be 52.4%.
Under `CC(C)[C@@H]1CN2C(=O)c3sccc3N(C(=O)NCc3ccccc3)C2CN(Cc2ccc3ccccc3c2)C1=O` (stereo partly drawn) [ID-20, (8R)—N-benzyl-8-isopropyl-6-(naphthalen-2-ylmethyl)-7,11-dioxo-4a,5,6,7,8,9-hexahydrothieno[3′,2′:4,5]pyrimido[1,2-a][1,4]diazepine-4(11H)-carboxamide] stands 56.8%; under `CC(C)CCN1CC2N(C[C@@H](Cc3ccc(O)cc3)C1=O)C(=O)c1sccc1N2C(=O)NCc1cccc2ccccc12` (stereo partly drawn) [ID-26, (8R)-8-(4-hydroxybenzyl)-6-isopentyl-N-(naphthalen-1-ylmethyl)-7,11-dioxo-4a,5,6,7,8,9-hexahydrothieno[3′,2′:4,5]pyrimido[1,2-a][1,4]diazepine-4(11H)-carboxamide], 61.1%; under `CC(C)CCN1CC2N(C[C@@H](Cc3ccc(O)cc3)C1=O)C(=O)CCN2C(=O)NCCC(c1ccccc1)c1ccccc1` (stereo partly drawn) [ID-05, (7R)—N-(3,3-diphenylpropyl)-7-(4-hydroxybenzyl)-9-isopentyl-4,8-dioxooctahydropyrimido[1,2-a][1,4]diazepine-1(2H)-carboxamide], 51.5%.
Regarding `O=C1[C@H](Cc2ccccc2)CN2C(=O)c3sccc3N(C(=O)NCCc3ccccc3)C2CN1Cc1cccc2cccnc12` (stereo partly drawn) [ID-23, (8R)-8-benzyl-7,11-dioxo-N-phenethyl-6-(quinolin-8-ylmethyl)-4a,5,6,7,8,9-hexahydrothieno[3′,2′:4,5]pyrimido[1,2-a][1,4]diazepine-4(11H)-carboxamide], the inhibition at 10 µM was 54.6%.
With `O=C1[C@H](Cc2ccc(O)cc2)CN2C(=O)CCN(C(=O)NCCC(c3ccccc3)c3ccccc3)C2CN1Cc1cccc2cccnc12` (stereo partly drawn) [ID-13, (7R)—N-(3,3-diphenylpropyl)-7-(4-hydroxybenzyl)-4,8-dioxo-9-(quinolin-8-ylmethyl)octahydropyrimido[1,2-a][1,4]diazepine-1(2H)-carboxamide], the inhibition at 10 µM came out at 53.7%.
To `O=C1[C@H](Cc2ccccc2)CN2C(=O)CCN(C(=O)NCCC(c3ccccc3)c3ccccc3)C2CN1CCc1ccccc1` (stereo partly drawn) [ID-12, (7R)-7-benzyl-N-(3,3-diphenylpropyl)-4,8-dioxo-9-phenethyloctahydropyrimido[1,2-a][1,4]diazepine-1(2H)-carboxamide] belongs 51.7%; to `O=C1[C@H](Cc2ccccc2)CN2C(=O)CCN(C(=O)NCCC(c3ccccc3)c3ccccc3)C2CN1CC1CCCCC1` (stereo partly drawn) [ID-07, (7R)-7-benzyl-9-(cyclohexylmethyl)-N-(3,3-diphenylpropyl)-4,8-dioxooctahydropyrimido[1,2-a][1,4]diazepine-1(2H)-carboxamide], 54.7%.

The values above are taken from US20250250282A1, “NOVEL SEVEN-MEMBERED RING-FUSED COMPOUNDS” (PRISM Biolab Co., Ltd., priority 2022, published 2025).
